Test [1] deals with 5-hydroxytryptamine receptor 2B (Homo sapiens, UniProt P41595).
In test [2] the target is T1, 5-hydroxytryptamine receptor 1A (Homo sapiens, UniProt P08908).
T1 sequence (P08908 whole entry): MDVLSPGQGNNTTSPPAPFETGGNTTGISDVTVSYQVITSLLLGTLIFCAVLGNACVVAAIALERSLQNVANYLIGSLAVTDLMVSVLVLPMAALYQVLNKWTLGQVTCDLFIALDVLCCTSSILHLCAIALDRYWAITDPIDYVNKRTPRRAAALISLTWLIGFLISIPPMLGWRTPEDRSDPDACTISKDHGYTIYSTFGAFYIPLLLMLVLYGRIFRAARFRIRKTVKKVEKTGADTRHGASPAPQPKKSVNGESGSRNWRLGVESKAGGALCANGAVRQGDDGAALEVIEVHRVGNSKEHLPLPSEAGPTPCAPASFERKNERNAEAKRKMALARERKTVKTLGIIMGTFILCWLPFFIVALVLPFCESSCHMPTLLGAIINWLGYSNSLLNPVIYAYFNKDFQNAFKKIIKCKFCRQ

The target of test [3] is Melanin-concentrating hormone receptor 1 (Homo sapiens, UniProt Q99705).

The term pKi denotes the Ki on a negative log10 scale, so that one unit is a factor of ten. Read a low pKi as a high Ki.

pKi: −log10 of the molar value.

5-hydroxytryptamine receptor 2B, sequence (P41595 whole entry): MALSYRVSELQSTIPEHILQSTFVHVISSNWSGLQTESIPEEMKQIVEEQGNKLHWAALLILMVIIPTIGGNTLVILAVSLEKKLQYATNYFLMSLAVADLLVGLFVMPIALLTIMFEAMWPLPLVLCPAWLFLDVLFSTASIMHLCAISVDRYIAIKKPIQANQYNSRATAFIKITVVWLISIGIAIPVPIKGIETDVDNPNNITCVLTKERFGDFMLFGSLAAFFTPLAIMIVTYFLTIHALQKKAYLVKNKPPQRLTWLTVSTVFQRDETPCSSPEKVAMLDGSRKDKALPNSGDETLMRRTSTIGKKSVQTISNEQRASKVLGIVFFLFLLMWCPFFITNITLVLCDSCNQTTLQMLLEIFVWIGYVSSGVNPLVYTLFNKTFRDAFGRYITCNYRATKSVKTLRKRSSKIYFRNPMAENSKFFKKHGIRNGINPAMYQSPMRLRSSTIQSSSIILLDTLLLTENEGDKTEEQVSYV
Melanin-concentrating hormone receptor 1, sequence (Q99705 as listed by the source): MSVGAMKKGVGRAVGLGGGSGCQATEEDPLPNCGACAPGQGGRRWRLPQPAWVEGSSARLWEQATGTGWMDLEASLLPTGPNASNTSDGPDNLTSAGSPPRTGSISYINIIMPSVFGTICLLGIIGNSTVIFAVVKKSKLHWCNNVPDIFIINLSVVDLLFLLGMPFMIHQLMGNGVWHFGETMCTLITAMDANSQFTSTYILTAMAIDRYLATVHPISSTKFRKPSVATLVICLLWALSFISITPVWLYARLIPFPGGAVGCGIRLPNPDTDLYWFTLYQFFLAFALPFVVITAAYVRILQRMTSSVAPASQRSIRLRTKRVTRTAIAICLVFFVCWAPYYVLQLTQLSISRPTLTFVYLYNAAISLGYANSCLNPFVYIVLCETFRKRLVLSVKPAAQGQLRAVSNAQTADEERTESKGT

For `CN(C)c1nc(N[C@H]2CC[C@@H](NC(=O)c3ccc(F)c(F)c3)CC2)nc2ccccc12` [ATC0175], the figures for the pKi in test [1] and in test [2] were 8.02 and 7.77, respectively.
Take `CN(C)c1nc(N[C@H]2CC[C@@H](NCCc3ccc(Br)cc3OC(F)(F)F)CC2)nc2ccccc12` [CAS_510732-84-0]: the pKi in test [1] was 6.58; in test [3], 7.80.

These data come from BindingDB's records for doi:10.1124/jpet.104.081711 (Taisho Pharmaceutical, 2005).
